≈ marks a conversion by molar mass, not a printed value. Where two headings read alike, the source gives them in different places.

Results on six molecules are retold here after patent US12297206B2, “Method for synthesizing furoimidazopyridine compound, polymorphic substance and polymorphic substance of salt” (HANGZHOU HIGHLIGHTLL PHARMACEUTICAL CO., LTD, priority 2019, dated 2025).

Data set [1] is described as follows: Stability test 1: short-term solid state stability (high temperature and accelerated conditions). The format is physicochemical. The protocol:
For the open samples, the bottle cap was removed and the bottle neck was coverred with an aluminium-foil paper stabbed with pinholes to avoid cross contamination; for the closed samples, the bottled were coverred and sealed tightly. Samples were taken at weeks 1 and 2, respectively, the samples were diluted with a diluent (methanol/water (1/1) (v/v)), the liquid phase was injected according to the chromatographic conditions in Table 22 and the sample purities were determined.
The sample purities were calculated with an area normalization method.

Data set [2] in a line: Dynamic vapour sorption (DVS) moisture absorption. The format is physicochemical.
The conditions of data set [3]: room temperature and 50° C., days 3, 7 and 14. As to the method: The sample bottles (wrapped with a tin foil paper to protect from light) in a room temperature system were placed on Labquaker rotator for rotating 360°; the samples in a high temperature system were placed in a 50° C. thermostatic shaking incubator and were slurried, part of the suspension samples were taken on days 3, 7 and 14, respectively and were centrifuged, solid residue was collected, the solvents were volatilized at room temperature (20-25° C.) to dryness, the solid was collected.

For data set [4] the following is noted: good solvents tetrahydrofuran, ethanol, isopropanol, methanol, acetone. From the text: If no solid was precipitated, the system was stirred with the bottle opened until solid was precipitated.
For data set [5] the following is noted: dissolved at about 50° C., transferred to −20° C. The protocol:
The temperature was maintained for 15 minutes, the solution was filterred with a 0.45 μm membrane when hot and was transferred to new sample bottles, the bottled were immediately transferred to a −20° C. refrigerator overnight, the solvent systems wherein solid was precipitated were centrifuged and the solid was collected, the solvent was volatilized at room temperature (20-25° C.) to dryness; the solvent systems wherein no solid was precipitated were placed to a −20° C. refrigerator until a large amount of solids precipitated.

For data set [6] the following is noted: dissolved at about 50° C., slowly cooled at 6° C./h. The protocol:
The temperature was maintained for 15 minutes, the solution was filterred with a 0.45 μm membrane when hot and transferred to new sample bottles, slowly cooled to room temperature at 6° C./h overnight, the sample bottles were placed in a refrigerator (2-8° C.), the solvent systems wherein solid precipitated were centrifuged and the solid was collected, the solvent was volatilized at room temperature (20-25° C.) to dryness; the solvent systems wherein no solid precipitated were placed in a −20° C. refrigerator until a large amount of solids precipitated.

The conditions of data set [7]: evaporated at room temperature.
Data set [8] is described as follows: Stability test 1: short-term solid state stability (high temperature and accelerated conditions). The format is physicochemical. The note with it: for Stability study: crystal form: 2 weeks (XRPD, DSC); for Appearance in solid state stability test: within 2 weeks, 60° C. and 40° C./75% RH.
The next data set is described as follows: physchem. The note with it: 37 °C, thermodynamic from solid.
A further data set concerns the target T1, TYK2 (Homo sapiens, UniProt P29597).
T1 construct: purchased Reaction Biology Corp, Malvern, PA (contract assay service)
The experiment in a line: TYK2 biochemical test (33P-ATP filter binding kinase assay, Reaction Biology Corp). The note with it: kinase reaction 2 hours at room temperature. The protocol:
A suitable amount of a compound of formula I was weighed for TYK2 biochemical test.
The test was conducted by Reaction Biology Corp, Malvern, PA (Anastassiadis et al. Nat Biotechnol. 2011; 29(11):1039-45). The steps are briefly described as follows.
Basic reaction buffer: 20 mM Hepes (pH 7.5), 10 mM MgCl2, 1 mM EGTA, 0.02% Brij35, 0.02 mg/ml BSA, 0.1 mM Na3VO4, 2 mM DTT and 1% DMSO. The required cofactors were added to each kinase reaction.
1. Preparing the designated substrate in the newly prepared basic reaction buffer;
2. Transferring the required cofactor to the above matrix solution;
3. Transferring the designated kinase to the substrate solution and mixing well slightly;
4. Transferring a compound of formula I in DMSO to a kinase reaction mixture with Acoustic technique (Echo550; nanoliter range), culturing for 20 minutes at room temperature;
5. Introducing ^33P-ATP (specific activity: 10 μCi/μl) to the reaction mixture to trigger a reaction;
6. Culturing at room temperature and conducting a kinase reaction for 2 hours;
7. Plotting the reaction on P81 ion exchange paper;
8. Testing the kinase activity with a filter binding assay.

The target of the next data set is JAK1 (Homo sapiens, UniProt P23458). The note with it: as reported for WO2018067422A1; cited from earlier work.
JAK1, sequence (P23458 whole entry, species assumed): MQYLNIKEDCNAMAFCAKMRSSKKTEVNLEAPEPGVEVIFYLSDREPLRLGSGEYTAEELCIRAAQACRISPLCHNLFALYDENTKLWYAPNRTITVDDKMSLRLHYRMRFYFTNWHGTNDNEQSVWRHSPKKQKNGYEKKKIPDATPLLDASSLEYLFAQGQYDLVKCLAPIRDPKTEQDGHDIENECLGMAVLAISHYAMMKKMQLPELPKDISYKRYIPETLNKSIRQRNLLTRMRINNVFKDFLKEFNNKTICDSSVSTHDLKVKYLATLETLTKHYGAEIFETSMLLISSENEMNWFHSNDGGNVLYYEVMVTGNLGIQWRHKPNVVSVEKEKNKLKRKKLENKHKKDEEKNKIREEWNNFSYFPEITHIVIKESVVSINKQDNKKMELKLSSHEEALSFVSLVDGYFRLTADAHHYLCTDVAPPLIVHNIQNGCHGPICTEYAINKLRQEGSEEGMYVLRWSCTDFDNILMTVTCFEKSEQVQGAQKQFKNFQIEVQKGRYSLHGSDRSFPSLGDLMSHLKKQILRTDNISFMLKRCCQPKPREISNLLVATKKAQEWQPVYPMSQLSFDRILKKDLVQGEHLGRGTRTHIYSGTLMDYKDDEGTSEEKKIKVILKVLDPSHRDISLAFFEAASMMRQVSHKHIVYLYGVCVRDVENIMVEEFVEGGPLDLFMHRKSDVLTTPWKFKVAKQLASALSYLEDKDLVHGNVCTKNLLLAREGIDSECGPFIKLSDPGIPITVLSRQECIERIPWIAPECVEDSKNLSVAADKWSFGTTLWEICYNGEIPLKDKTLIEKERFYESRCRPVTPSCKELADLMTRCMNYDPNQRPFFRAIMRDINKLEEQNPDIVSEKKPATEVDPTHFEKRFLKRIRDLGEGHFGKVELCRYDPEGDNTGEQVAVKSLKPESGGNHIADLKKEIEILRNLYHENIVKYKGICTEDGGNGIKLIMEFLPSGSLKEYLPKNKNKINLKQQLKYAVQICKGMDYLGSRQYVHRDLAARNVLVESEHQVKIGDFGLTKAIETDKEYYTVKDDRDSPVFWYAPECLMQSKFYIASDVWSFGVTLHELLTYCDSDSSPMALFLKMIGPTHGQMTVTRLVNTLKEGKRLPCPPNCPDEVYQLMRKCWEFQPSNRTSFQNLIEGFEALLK
The subject of data set [9] is IL-6-induced STAT3 phosphorylation. The note with it: as reported for WO2018067422A1; cited from earlier work.
Data set [10] concerns thrombopoietin-induced STAT3 phosphorylation. The note with it: as reported for WO2018067422A1; cited from earlier work.
The mark [11] stands for this setting: fasted-state simulated intestinal fluid (FaSSIF), fassif.
[12] abbreviates: fed-state simulated intestinal fluid (FeSSIF), fessif.
The mark [13] stands for this setting: simulated gastric fluid (SGF), simulated gastric fluid.

T1 sequence (P29597 whole entry): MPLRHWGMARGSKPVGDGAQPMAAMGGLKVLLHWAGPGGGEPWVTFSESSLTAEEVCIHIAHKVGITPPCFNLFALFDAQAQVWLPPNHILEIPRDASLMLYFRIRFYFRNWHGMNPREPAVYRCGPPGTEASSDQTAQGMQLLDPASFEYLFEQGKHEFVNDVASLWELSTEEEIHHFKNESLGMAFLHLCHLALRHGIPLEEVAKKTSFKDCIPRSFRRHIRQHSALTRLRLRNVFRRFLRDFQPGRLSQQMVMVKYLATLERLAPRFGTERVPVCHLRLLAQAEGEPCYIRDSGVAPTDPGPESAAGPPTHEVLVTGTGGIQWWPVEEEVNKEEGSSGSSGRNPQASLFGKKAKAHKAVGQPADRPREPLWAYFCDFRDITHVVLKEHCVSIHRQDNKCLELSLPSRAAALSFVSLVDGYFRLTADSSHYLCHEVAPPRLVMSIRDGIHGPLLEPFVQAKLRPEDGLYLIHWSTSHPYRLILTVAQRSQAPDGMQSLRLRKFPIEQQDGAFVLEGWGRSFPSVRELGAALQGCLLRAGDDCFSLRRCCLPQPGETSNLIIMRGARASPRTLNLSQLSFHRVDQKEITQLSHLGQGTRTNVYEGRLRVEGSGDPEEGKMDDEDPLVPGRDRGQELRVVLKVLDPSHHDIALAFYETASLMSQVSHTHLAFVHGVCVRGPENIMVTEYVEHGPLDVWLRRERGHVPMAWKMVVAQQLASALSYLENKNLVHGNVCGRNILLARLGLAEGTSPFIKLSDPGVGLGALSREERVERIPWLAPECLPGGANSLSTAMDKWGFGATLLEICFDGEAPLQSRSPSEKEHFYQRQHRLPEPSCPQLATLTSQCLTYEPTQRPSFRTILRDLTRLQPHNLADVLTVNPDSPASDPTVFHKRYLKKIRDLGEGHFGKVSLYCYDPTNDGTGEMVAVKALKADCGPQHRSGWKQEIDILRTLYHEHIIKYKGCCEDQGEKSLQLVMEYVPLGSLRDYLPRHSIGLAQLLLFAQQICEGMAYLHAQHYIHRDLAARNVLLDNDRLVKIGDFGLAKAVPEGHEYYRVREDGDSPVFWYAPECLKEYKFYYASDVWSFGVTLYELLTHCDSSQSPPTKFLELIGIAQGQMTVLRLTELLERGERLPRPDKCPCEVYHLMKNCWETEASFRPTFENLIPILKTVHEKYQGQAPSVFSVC
Procedure for physchem: The samples were observed 5 minutes later, a quantity of sample or medium was supplemented to obtain mild suspension, and sampling was conduct at 30 minutes, 2 hour, 4 hours and 24 hours, respectively. The samples were centrifuged for 10 minutes at 12000 rpm to obtain the supernatant, the supernatant was diluted appropriately and was subjected to high performance liquid chromatography.
The sample concentration was calculated with an external standard method.

`Cc1nc2cnc3ccoc3c2n1C1CCC(CC#N)OC1.Cc1nc2cnc3ccoc3c2n1C1CCC(CC#N)OC1.O=C(O)C(O)C(O)C(=O)O` (stereo not shown): the “Stability study (purity)” value is reported as 99.22 Area % in data set [1] (0 day); 99.31 Area % in data set [1] (40° C./75% RH, open, 1 week); 99.36 Area % in [1] (40° C./75% RH, open, 2 weeks); 99.34 Area % in [1] (60° C., sealed, 1 week); 99.36 Area % in data set [1] (60° C., sealed, 2 weeks). For the same molecule, in [2], the “Crystal form after moisture absorption (XRPD before and after the DVS test)” value (shortened to “Crystal form after moisture absorption”) is “doesn't change”. The “Weight gain by moisture absorption (DVS)” value amounted to 1.80% in [2] (at a humidity of 80% RH) and 6.85% in data set [2] (from 0% RH to 95% RH, 25° C.). Further, the “Crystal form after slurrying” value in data set [3] (Acetone), in [3] (Ethanol), in data set [3] (Ethyl acetate), in data set [3] (Isopropanol), in data set [3] (Methanol) and in data set [3] (Methyl tert-butyl ether) was “Crystal form O” in each case. Further, the “Crystal form after slurrying” value in data set [3] (N-heptane), in [3] (Tetrahydrofuran) and in data set [3] (Toluene) was “Crystal form O” throughout. Further, the Product crystal form result in [4] (Anti-solvent Ethyl acetate), in data set [4] (Anti-solvent Methyl tert-butyl ether), in [4] (Anti-solvent N-heptane) and in data set [4] (Anti-solvent Toluene) was “Crystal form O” throughout. Further, the “Crystal form of precipitated solid” value in data set [5] (Ethanol), in [5] (Isopropanol), in [5] (Methanol), in data set [6] (Ethanol), in [6] (Isopropanol) and in data set [7] (Acetone) was “Crystal form O” each time. The “Crystal form of precipitated solid” value in [7] (Ethanol), in [7] (Isopropanol), in [7] (Methanol) and in data set [7] (Tetrahydrofuran) was “Crystal form O” each time. The “Stability study: crystal form” value in [8] (40° C./75% RH, open) was “Unchange”; in [8] (60° C., sealed), “Unchange”. Also, the “Appearance in solid state stability test” value in data set [8] is “didn't change”.

Regarding `Cc1nc2cnc3ccoc3c2n1C1CCC(CC#N)OC1.O=S(=O)(O)c1ccccc1` (stereo not shown), in [2], the “Crystal form after moisture absorption” value is “doesn't change”. The “Weight gain by moisture absorption (DVS)” value was 0.97% in data set [2] (at 70% RH); 0.54% in data set [2] (at a humidity of 85% RH); 4.6% in data set [2] (from 0% RH to 95% RH, 25° C.).

For `Cc1nc2cnc3ccoc3c2n1[C@H]1CC[C@H](CC#N)OC1`, the “Stability study (purity)” value worked out at 99.80 Area % in [1] (0 day); 99.82 Area % in data set [1] (40° C./75% RH, open, 1 week); 99.82 Area % in [1] (40° C./75% RH, open, 2 weeks); 99.81 Area % in [1] (60° C., sealed, 1 week); 99.83 Area % in data set [1] (60° C., sealed, 2 weeks). For the same molecule, the “Crystal form after moisture absorption” value in data set [2] was “the crystal form changes”. In data set [2] (from 0% RH to 95% RH, 25° C.), the “Weight gain by moisture absorption (DVS)” value is 13.86%. Further, the “Stability study: crystal form” value in [8] (40° C./75% RH, open) is listed as “Change”; in [8] (60° C., sealed), “Change”. The “Appearance in solid state stability test” value in data set [8] is on record as “didn't change”. For the same molecule, the solubility (commonly the dissolved amount per volume that the medium holds) at 30 min was 2590 µg/mL (≈ 8.74 mM) in the data set “physchem” (setting [11]), 2910 µg/mL (≈ 9.82 mM) in “physchem” (setting [12]), 16400 µg/mL (≈ 55.3 mM) in the data set “physchem” (setting [13]) and 1350 µg/mL (≈ 4.56 mM) in “physchem” (water). In addition, the solubility at 2 h in “physchem” (setting [11]) is 1860 µg/mL (≈ 6.28 mM); in the data set “physchem” (setting [12]), 2200 µg/mL (≈ 7.42 mM); in “physchem” (setting [13]), 17000 µg/mL (≈ 57.2 mM); in the data set “physchem” (water), 1730 µg/mL (≈ 5.84 mM). The solubility at 4 h in “physchem” (setting [11]) is 1810 µg/mL (≈ 6.11 mM); in “physchem” (setting [12]) it was 2610 µg/mL (≈ 8.81 mM); in the data set “physchem” (setting [13]), 15200 µg/mL (≈ 51.2 mM); in “physchem” (water), 1490 µg/mL (≈ 5.03 mM). Moreover, the solubility at 24 h in “physchem” (setting [11]) was 1560 µg/mL (≈ 5.26 mM); in the data set “physchem” (setting [12]), 3290 µg/mL (≈ 11.1 mM); in the data set “physchem” (setting [13]), 16400 µg/mL (≈ 55.4 mM); in “physchem” (water) it was 1430 µg/mL (≈ 4.83 mM).

`Cc1nc2cnc3ccoc3c2n1C1CCC(CC#N)OC1.O=P(O)(O)O` (stereo not shown): the “Stability study (purity)” value in data set [1] (0 day) stood at 99.34 Area %; in data set [1] (40° C./75% RH, open, 1 week), 99.33 Area %; in [1] (40° C./75% RH, open, 2 weeks), 99.35 Area %; in [1] (60° C., sealed, 1 week), 99.32 Area %; in [1] (60° C., sealed, 2 weeks), 99.16 Area %. The “Crystal form after moisture absorption” value in data set [2] is “doesn't change”. Besides, the “Weight gain by moisture absorption (DVS)” value is reported as 1.95% in [2] (at 70% RH); 0.72% in data set [2] (at a humidity of 85% RH); 6.5% in data set [2] (from 0% RH to 95% RH, 25° C.). Besides, the “Stability study: crystal form” value was “Unchange” in [8] (40° C./75% RH, open) and “Unchange” in data set [8] (60° C., sealed). Further, the “Appearance in solid state stability test” value in [8] is on record as “didn't change”.

Consider `Br.Cc1nc2cnc3ccoc3c2n1C1CCC(CC#N)OC1` (stereo not shown), for which, in [2], the “Crystal form after moisture absorption” value was “changed”. Further, the “Weight gain by moisture absorption (DVS)” value in data set [2] (from 0% RH to 95% RH, 25° C.) stood at 11.84%.

In the case of `Cc1nc2cnc3ccoc3c2n1[C@H]1CC[C@H](CC#N)OC1` [compound of formula I, 2-[(2R,5S)-5-[2-methylfuro[3,2-b]imidazo[4,5-d]pyridin-1-yl]tetrahydropyran-2-yl] acetonitrile], at TYK2, the IC50 – broadly, the concentration that gives 50% inhibition – is less than 10 nM. Further, the JAK1 inhibition result on JAK1 is “potent and selective JAK1 inhibitor”. In addition, the “Inhibition of IL-6-induced STAT3 phosphorylation” value in data set [9] is on record as “selective inhibition”. Further, in data set [10], the “Inhibition of thrombopoietin-induced STAT3 phosphorylation” value is reported as “does not show selective inhibition”.
